Experimental data taken from article PMC8262883, “Human Gut Faecalibacterium prausnitzii Deploys a Highly Efficient Conserved System To Cross-Feed on β-Mannan-Derived Oligosaccharides” (mBio, 2021).

Target: T1, FpMOBP (Faecalibacterium prausnitzii, UniProt D4KAW3)
T1 construct: gene FPR_17280; mature form without predicted signal peptide, C-terminal His6 tag (pNIC-CH), E. coli BL21 STAR; 48 kDa
T1 sequence (D4KAW3 26-470): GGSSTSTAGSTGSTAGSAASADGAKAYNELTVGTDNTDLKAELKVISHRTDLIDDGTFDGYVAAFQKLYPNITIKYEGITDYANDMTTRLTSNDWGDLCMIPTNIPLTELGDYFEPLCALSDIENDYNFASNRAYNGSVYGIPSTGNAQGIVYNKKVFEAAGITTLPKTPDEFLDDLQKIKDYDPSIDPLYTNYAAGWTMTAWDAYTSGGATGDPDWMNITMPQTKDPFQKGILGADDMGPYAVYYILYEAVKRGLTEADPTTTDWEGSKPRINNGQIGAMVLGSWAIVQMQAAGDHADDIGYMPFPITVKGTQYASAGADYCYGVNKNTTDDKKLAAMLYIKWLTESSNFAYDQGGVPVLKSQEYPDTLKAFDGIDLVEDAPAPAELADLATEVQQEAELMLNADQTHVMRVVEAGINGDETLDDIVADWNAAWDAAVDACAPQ
Assay: isothermal titration calorimetry
Assay type: binding
Settings: 25°C, 50 mM sodium phosphate pH 6.5; n = 0.8

In the case of OC[C@H]1O[C@@H](O[C@H]2[C@H](O)[C@H](O)[C@H](O[C@H]3[C@H](O)[C@H](O)[C@H](O[C@H]4[C@H](O)[C@H](O)[C@H](O[C@H]5[C@H](O)[C@H](O)[C@H](O[C@H]6[C@H](O)[C@H](O)C(O)O[C@@H]6CO)O[C@@H]5CO)O[C@@H]4CO)O[C@@H]3CO)O[C@@H]2CO)[C@@H](O)[C@@H](O)[C@@H]1O (stereo partly shown) [M6, mannohexaose], the Kd is reported as 189 ± 1.4 µM.
